Results published in patent publication EP0091328B1, “Trans-4-aminobenz(c,d)indol-5-ol derivatives, their salts, their preparation, their use as medicaments and compositions containing them” (priority 1982, dated 1983).
Counter-ions that a name gives are not always drawn.

Experiments:
souris = test: Acute toxicity, lethal dose DL0 after oral administration; format: in vivo; details: mouse, maximal dose causing no mortality in 8 days
Description: 4) Etude de la toxicité aiguë
On a évalué les doses létales DLo des différents composés testés après administration par voie orale chez la souris.
On appelle DLo la dose maximale ne provoquant aucune mortalité en 8 jours.

[1] = system: rats mâles de souche WISTAR; test: Hypotensive activity in anaesthetised rats (carotid arterial pressure, intravenous administration); format: in vivo; details: anaesthetised Wistar rat, versus initial control pressure
Description: 1) Détermination de l'activité hypotensive
L'activité hypotensive a été étudiée sur des rats mâles de souche WISTAR pesant 300 g environ et anesthésiés au nembutal (50 mg/kg par voie intraveineuse).
Le produit testé a été administré par voie intraveineuse dans la veine jugulaire.
La pression artérielle càrotidienne a été mesurée avant et après administration du produit testé.
Le tableau ci-après indique les variations exprimées en pourcentage de la pression artérielle après- administration du produit testé par rapport à la pression artérielle témoin initiale.

Compound	DL0 (souris)	Variation % de la pression artérielle 30 minutes après l'administration ([1]; dose 1 mg/kg)	Variation % de la pression artérielle 30 minutes après l'administration ([1]; dose 0,1 mg/kg)
N[C@@H]1CC2CNc3cccc(c32)[C@H]1O (mixture of isomers) [Exemple 1, dichlorhydratede trans 4RS 4-amino 1,2,2a.3,4,5-hexahydro benz(c,d) indol-5-0l]	>400 mg/kg		
CCCN[C@@H]1Cc2c[nH]c3cccc(c23)[C@H]1O (racemic) [Exemple 9, Chlorhydratede trans 4RS 4-(propylamino) 1,3,4,5-tétrahydro benz(c,d) indol-5-0l]	60 mg/kg	-30%	
trans 4RS 4-(isopropylamino) 1,,2a,3,4,5-hexahydrobenz(c,d) indol-5-ol [Exemple 5]	200 mg/kg		
CN[C@@H]1CC2CNc3cccc(c32)[C@H]1O (mixture of isomers) [Exemple 2, Fumarate neutrede trans 4RS 4-(méthylamino) 1,2,2a,3,4,5-hexahydro benz(c,d) indol-5-0l]	>800 mg/kg		
CCN[C@@H]1Cc2c[nH]c3cccc(c23)[C@H]1O (racemic) [Exemple 8, Chlorhydratede trans 4RS 4-(éthylamino) 1,3,4,5-tétrahydro benz(c,d) indol-5-0l]	80 mg/kg		-13%
CC(C)N[C@@H]1Cc2c[nH]c3cccc(c23)[C@H]1O (racemic) [Exemple 10, Chlorhydratede trans 4RS 4-(isopropylamino) 1,3,4,5-tétrahydro benz(c,d) indol-5-0l]	100 mg/kg	-24%	
CN[C@@H]1Cc2c[nH]c3cccc(c23)[C@H]1O (racemic) [Exemple 7, Chlorhydratede trans 4RS 4-(méthylamino) 1,3,4,5-tétrahydro benz(c,d) indol-5-0l]	>400 mg/kg		
CCN[C@@H]1CC2CNc3cccc(c32)[C@H]1O (mixture of isomers) [Exemple 3, Fumarate neutrede trans 4RS 4-(éthylamino) 1,2,2a,3,4,5-hexahydro benz(c,d) indol-5-ol]	>400 mg/kg		
trans 4RS 4-(propylamino) 1,2,2a,3,4,5-hexahydrobenz(c,d) indol-5--ol [Exemple 4]	200 mg/kg		
